Reference: PubChem BioAssay AID1918995 (Molecular Pharmacology Branch, DTP, NCI, 2023)

Test system: 324938-238-R-J1-PDC complex spheroid growth, % test/control
Experiment: Anticancer human tumor 324938-238-R-J1-PDC patient-derived bladder carcinoma cell line growth inhibition [AhR]
Conditions: for IC50: curve of first compound; for viability, T/C: stronger effect = lower value
Procedure, shortened: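 Agents were dosed in half-log steps down from roughly clinical Cmax, or from 10 microM where Cmax was unknown, alone and with AhR antagonists. Read-out: percent test/control growth of tumor spheroids containing HUVEC and MSC stromal cells.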

[1] = second compound 0.1 µM, first compound 0.0316 µM
[2] = second compound 0.1 µM, first compound 0.1 µM
[3] = second compound 0.316 µM, first compound 0.0316 µM
[4] = second compound 0.316 µM, first compound 0.1 µM
[5] = second compound 1 µM, first compound 0.0316 µM
[6] = second compound 1 µM, first compound 0.1 µM
[7] = second compound 3.16 µM, first compound 0.0316 µM
[8] = second compound 3.16 µM, first compound 0.1 µM
[9] = second compound 10 µM, first compound 0.0316 µM
[10] = second compound 10 µM, first compound 0.1 µM
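Further: spheroids exposed to agents for seven days before viability read.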

Cn1ncnc1C1c2n[nH]c(=O)c3cc(F)cc(c23)NC1c1ccc(F)cc1 (stereo not given) + CC(CO)NC(=O)c1cc(-c2ccc(Cl)cc2)nn(-c2cnn(C)c2)c1=O
IC50 (second compound 0.1 µM): > 100 nM | IC50 (second compound 0.316 µM): 91.9 nM | IC50 (second compound 1 µM): > 100 nM | IC50 (second compound 3.16 µM): 60.6 nM | IC50 (second compound 10 µM): 18.7 nM | viability, T/C (second compound 0.1 µM, first compound 0.000316 µM): 93.4% | viability, T/C (second compound 0.1 µM, first compound 0.001 µM): 107% | viability, T/C (second compound 0.1 µM, first compound 0.00316 µM): 87.1% | viability, T/C (second compound 0.1 µM, first compound 0.01 µM): 76.3% | viability, T/C [1]: 61.4% | viability, T/C [2]: 58.5% | viability, T/C (second compound 0.316 µM, first compound 0.000316 µM): 83.5% | viability, T/C (second compound 0.316 µM, first compound 0.001 µM): 92.8% | viability, T/C (second compound 0.316 µM, first compound 0.00316 µM): 92.7% | viability, T/C (second compound 0.316 µM, first compound 0.01 µM): 81.7% | viability, T/C [3]: 62.9% | viability, T/C [4]: 48.9% | viability, T/C (second compound 1 µM, first compound 0.000316 µM): 76.8% | viability, T/C (second compound 1 µM, first compound 0.001 µM): 82.2% | viability, T/C (second compound 1 µM, first compound 0.00316 µM): 79.2% | viability, T/C (second compound 1 µM, first compound 0.01 µM): 69.6% | viability, T/C [5]: 61% | viability, T/C [6]: 53.5% | viability, T/C (second compound 3.16 µM, first compound 0.000316 µM): 67.6% | viability, T/C (second compound 3.16 µM, first compound 0.001 µM): 71.9% | viability, T/C (second compound 3.16 µM, first compound 0.00316 µM): 71% | viability, T/C (second compound 3.16 µM, first compound 0.01 µM): 61.5% | viability, T/C [7]: 52.1% | viability, T/C [8]: 47.3% | viability, T/C (second compound 10 µM, first compound 0.000316 µM): 67.3% | viability, T/C (second compound 10 µM, first compound 0.001 µM): 65.8% | viability, T/C (second compound 10 µM, first compound 0.00316 µM): 60.7% | viability, T/C (second compound 10 µM, first compound 0.01 µM): 53% | viability, T/C [9]: 44.5% | viability, T/C [10]: 43%

O=C(C=Cn1cnc(-c2cc(C(F)(F)F)cc(C(F)(F)F)c2)n1)NNc1cnccn1 + Cc1cncc(-c2nc(NCCc3c[nH]c4ccccc34)c3ncn(C(C)C)c3n2)c1
IC50 (second compound 0.1 µM): > 3000 nM | IC50 (second compound 0.316 µM): 639 nM | IC50 (second compound 1 µM): 1100 nM | IC50 (second compound 3.16 µM): 740 nM | IC50 (second compound 10 µM): < 9.49 nM | viability, T/C (second compound 0.1 µM, first compound 0.00949 µM): 86.6% | viability, T/C (second compound 0.1 µM, first compound 0.03 µM): 94.1% | viability, T/C (second compound 0.1 µM, first compound 0.0949 µM): 66.5% | viability, T/C (second compound 0.1 µM, first compound 0.3 µM): 56.2% | viability, T/C (second compound 0.1 µM, first compound 0.949 µM): 53.2% | viability, T/C (second compound 0.1 µM, first compound 3 µM): 44.3% | viability, T/C (second compound 0.316 µM, first compound 0.00949 µM): 95.5% | viability, T/C (second compound 0.316 µM, first compound 0.03 µM): 90.8% | viability, T/C (second compound 0.316 µM, first compound 0.0949 µM): 110% | viability, T/C (second compound 0.316 µM, first compound 0.3 µM): 64.9% | viability, T/C (second compound 0.316 µM, first compound 0.949 µM): 47.1% | viability, T/C (second compound 0.316 µM, first compound 3 µM): 37.3% | viability, T/C (second compound 1 µM, first compound 0.00949 µM): 112% | viability, T/C (second compound 1 µM, first compound 0.03 µM): 94.7% | viability, T/C (second compound 1 µM, first compound 0.0949 µM): 80.7% | viability, T/C (second compound 1 µM, first compound 0.3 µM): 79.7% | viability, T/C (second compound 1 µM, first compound 0.949 µM): 50.4% | viability, T/C (second compound 1 µM, first compound 3 µM): 31.4% | viability, T/C (second compound 3.16 µM, first compound 0.00949 µM): 120% | viability, T/C (second compound 3.16 µM, first compound 0.03 µM): 103% | viability, T/C (second compound 3.16 µM, first compound 0.0949 µM): 93.1% | viability, T/C (second compound 3.16 µM, first compound 0.3 µM): 60.6% | viability, T/C (second compound 3.16 µM, first compound 0.949 µM): 42.3% | viability, T/C (second compound 3.16 µM, first compound 3 µM): 47.6% | viability, T/C (second compound 10 µM, first compound 0.00949 µM): 16.9% | viability, T/C (second compound 10 µM, first compound 0.03 µM): 7.37% | viability, T/C (second compound 10 µM, first compound 0.0949 µM): 15% | viability, T/C (second compound 10 µM, first compound 0.3 µM): 20.5% | viability, T/C (second compound 10 µM, first compound 0.949 µM): 22.1% | viability, T/C (second compound 10 µM, first compound 3 µM): 25.8%

NS(=O)(=O)OCC1CC(n2ccc3c(NC4CCc5ccccc54)ncnc32)CC1O (stereo not given) + CC(CO)NC(=O)c1cc(-c2ccc(Cl)cc2)nn(-c2cnn(C)c2)c1=O
IC50 (second compound 0.1 µM): 534 nM | IC50 (second compound 0.316 µM): 558 nM | IC50 (second compound 1 µM): 586 nM | IC50 (second compound 3.16 µM): 450 nM | IC50 (second compound 10 µM): 379 nM | viability, T/C [1]: 90.3% | viability, T/C [2]: 96.4% | viability, T/C (second compound 0.1 µM, first compound 0.316 µM): 66.8% | viability, T/C (second compound 0.1 µM, first compound 1 µM): 31.1% | viability, T/C (second compound 0.1 µM, first compound 3.16 µM): 25.3% | viability, T/C (second compound 0.1 µM, first compound 10 µM): 28.9% | viability, T/C [3]: 88.5% | viability, T/C [4]: 101% | viability, T/C (second compound 0.316 µM, first compound 0.316 µM): 64% | viability, T/C (second compound 0.316 µM, first compound 1 µM): 37.3% | viability, T/C (second compound 0.316 µM, first compound 3.16 µM): 21.9% | viability, T/C (second compound 0.316 µM, first compound 10 µM): 27.1% | viability, T/C [5]: 77.1% | viability, T/C [6]: 82.2% | viability, T/C (second compound 1 µM, first compound 0.316 µM): 64.1% | viability, T/C (second compound 1 µM, first compound 1 µM): 38.2% | viability, T/C (second compound 1 µM, first compound 3.16 µM): 22.9% | viability, T/C (second compound 1 µM, first compound 10 µM): 29.1% | viability, T/C [7]: 69.9% | viability, T/C [8]: 67.8% | viability, T/C (second compound 3.16 µM, first compound 0.316 µM): 55.4% | viability, T/C (second compound 3.16 µM, first compound 1 µM): 37.3% | viability, T/C (second compound 3.16 µM, first compound 3.16 µM): 27.5% | viability, T/C (second compound 3.16 µM, first compound 10 µM): 26.9% | viability, T/C [9]: 61.5% | viability, T/C [10]: 58.6% | viability, T/C (second compound 10 µM, first compound 0.316 µM): 51.5% | viability, T/C (second compound 10 µM, first compound 1 µM): 40.8% | viability, T/C (second compound 10 µM, first compound 3.16 µM): 29.1% | viability, T/C (second compound 10 µM, first compound 10 µM): 30.5%
